Measurements from US11401295B2, “Cyclic dinucleotide compound and uses thereof” (SHANGHAI JEMINCARE PHARMACEUTICALS CO., LTD., priority 2018, dated 2022).
Like-named read-outs stand apart in the source and are kept apart here.

Legend:
[1] = system: IRF3 pathway in THP1-Dual cells; experiment: THP1-Dual reporter gene activity assay (Lucia luciferase, QUANTI-Luc); format: cell-based, human
From the text: THP1-Dual™ cells (InvivoGen catalog code: thpd-nfis) used in the test were constructed by stably integrating two inducible reporter genes into the human monocyte cell line THP1. The promoter sequence composition of the secretory embryonic alkaline phosphatase (SEAP) reporter gene consists of an IFN-β primary promoter and five copies of the upstream NF-κB co-expression transcriptional response element and three copies of the c-Rel binding site. The secretory luciferase (Lucia) reporter gene is driven by five interferon (IFN)-stimulated response elements and a basic promoter of ISG54. This made it possible to study simultaneously the two major downstream signaling pathways of STING: the NF κB pathway by detecting SEAP activity: and the IRF pathway by evaluating the activity of Lucia luciferase.
The compounds were diluted with PB buffer (50 mM HEPES, 100 mM KCl, 3 mM MgCl2, 0.1 mM DTT, 85 mM Sucrose, 1 mM ATP, 0.1 mM GTP, 0.20% BSA). 20 μL of the reference or tested compound was added to each well in a 96-well plate, followed by 180 μL of THP1-Dual cells (approximately 100,000 cells/well) suspended in PB buffer. The plate was incubated for 30 minutes at 37° C. under […], and centrifuged at 1000 rpm for 10 minutes. The supernatant was discarded. […] The supernatants were collected and QUANTI-Luc™ was used to quantify the activation of the IRF3 pathway according to the manufacturer's instructions.

[2] = system: IRF3 pathway in RAW-Dual cells (RAW264.7); experiment: Raw-Dual reporter gene activity assay (luciferase, QUANTI-Luc); format: cell-based, mouse
Description: The RAW-Dual™ cells used in the test (InvivoGen catalog code: rawd-ismip) were constructed by stably integrating two inducible reporter genes in mouse macrophage cell line RAW264.7. The NF-KB pathway was studied by detecting SEAP activity and the IRF3 pathway was studied by evaluating the activity of luciferase. […] On the second day, the culture medium was discarded, and 200 μL of compound solution prepared in advance with the culture medium was added into each well followed by incubation at room temperature for 30 minutes. After the treatment medium was sucked out, it was washed twice with serum-free culture medium, and 200 μL of culture medium was added into each well, followed by incubation in an incubator at 37° C. for 18-24 hours. On the third day, 20 μL of supernatant was collected per well and QUANTI-Luc™ was used to quantify the activation of IRF3 pathway according to the manufacturer's instructions.

[3] = THP1-Dual cells, IRF3 pathway (Lucia), 30 min treatment, 18 hours incubation, read-out: EC50
[4] = Mus musculus, RAW264.7, read-out: Raw, EC50

| Compound | EC50 [2, 4] [µM] | EC50 [1] [µM] | EC50 ([2]; read-out: Raw, EC50) [µM] | other results |
| --- | --- | --- | --- | --- |
| Nc1ncnc2c1ncn2[C@@H]1O[C@@H]2COP(=O)(S)O[C@@H]3[C@H](O)[C@@H](COP(O)(=S)O[C@H]2[C@H]1O)O[C@H]3n1cnc2c(N)ncnc21 (stereo partly drawn) [ADU-S100, reference compound] | – | – | – | EC50 [1, 3]: 23.4 µM; EC50 ([2]; RAW-Dual cells, IRF3 pathway, 30 min treatment, 18-24 hours incubation, read-out: Raw, EC50): 47.1 µM |
| Nc1nc2c(ncn2[C@@H]2O[C@@H]3COP(=O)(O)O[C@H]4[C@@H](O)[C@H](n5cnc6c(N)ncnc65)O[C@@H]4COP(=O)(O)O[C@@H]2[C@@H]3O)c(=O)[nH]1 [2′,3′-cGAMP, (2′ 3′) cyclic guanosine monophosphate-adenosine monophosphate, reference compound] | – | – | – | EC50 [1, 3]: 20.2 µM |
| BP1(=O)OC[C@H]2O[C@@H](n3cnc4c(N)ncnc43)C(O)[C@H]2OP(=O)(S)OC[C@H]2O[C@@H](n3cnc4c(N)ncnc43)C(F)[C@H]2O1 (stereo partly drawn) [Compound 1B] | 15.8 | – | – | EC50 ([1]; Homo sapiens, THP1-Dual): 7.38 µM |
| BP1(=O)OC[C@H]2O[C@@H](n3cnc4c(N)ncnc43)C(O)[C@H]2OP(=O)(S)OC[C@H]2O[C@@H](n3cnc4c(N)ncnc43)[C@@H](F)C2O1 (stereo partly drawn) [Compound 1A] | – | – | – | EC50 ([1]; Homo sapiens, THP1-Dual): 74.7 µM |
| BP1(=O)OC[C@H]2O[C@@H](n3cc(F)c4c(=O)[nH]cnc43)[C@@H](F)C2OP(B)(=O)OC[C@H]2O[C@@H](n3cnc4c(N)ncnc43)[C@@H](F)C2O1 (single isomer, unassigned) [Compound 6B] | – | 9.31 | 5.4 | – |
| BP1(=O)OC[C@H]2O[C@@H](n3cc(F)c4c(=O)[nH]cnc43)[C@@H](F)C2OP(B)(=O)OC[C@H]2O[C@@H](n3cnc4c(N)ncnc43)[C@@H](F)C2O1 (single isomer, unassigned) [Compound 6D] | – | 12.3 | 9.5 | – |
| BP1(=O)OC[C@H]2O[C@@H](n3cc(F)c4c(=O)[nH]cnc43)[C@@H](F)C2OP(B)(=O)OC[C@H]2O[C@@H](n3cnc4c(N)ncnc43)[C@@H](F)C2O1 (single isomer, unassigned) [Compound 6A] | – | 1.36 | – | – |
| BP1(=O)OC[C@@]23COC([C@H](n4cnc5c(N)ncnc54)O2)[C@H]3OP(B)(=O)OC[C@H]2O[C@@H](n3cnc4c(N)ncnc43)[C@@H](F)C2O1 (single isomer, unassigned) [Compound 5B] | 54.8 | – | – | EC50 ([1]; Homo sapiens, THP1-Dual): 11.4 µM |
| BP1(=O)OC[C@H]2O[C@@H](n3cnc4c(N)ncnc43)C(O)[C@H]2OP(=O)(S)OC[C@H]2O[C@@H](n3cnc4c(N)ncnc43)C(F)[C@H]2O1 (single isomer, unassigned) [Compound 1C] | 41.4 | 16.8 | – | – |
| BP1(=O)OC[C@@]23COC([C@H](n4cnc5c(N)ncnc54)O2)[C@H]3OP(B)(=O)OC[C@H]2O[C@@H](n3cnc4c(N)ncnc43)[C@@H](F)C2O1 (single isomer, unassigned) [Compound 5C] | – | – | 28.2 | – |
| BP1(=O)OC[C@H]2O[C@@H](n3cnc4c(N)ncnc43)[C@@H](F)C2OP(B)(=O)OC[C@H]2O[C@@H](n3cc(F)c4c(=O)[nH]cnc43)[C@@H](O)C2O1 (single isomer, unassigned) [Compound 3D] | – | 26.1 | 10 | – |
| BP1(=O)OC[C@H]2O[C@@H](n3cnc4c(N)ncnc43)C(F)[C@H]2OP(B)(=O)OC[C@H]2O[C@@H](n3cnc4c(N)ncnc43)[C@@H](F)C2O1 (stereo partly drawn) [Compound 2A] | 23.4 | – | – | EC50 ([1]; Homo sapiens, THP1-Dual): 1.75 µM |
| BP1(=O)OC[C@H]2O[C@@H](n3cnc4c(N)ncnc43)[C@@H](F)C2OP(B)(=O)OC[C@H]2O[C@@H](n3cc(F)c4c(=O)[nH]cnc43)[C@@H](O)C2O1 (single isomer, unassigned) [Compound 3C] | 9.4 | 47.2 | – | – |
| BP1(=O)OC[C@H]2O[C@@H](n3cc(F)c4c(=O)[nH]cnc43)[C@@H](F)C2OP(B)(=O)OC[C@H]2O[C@@H](n3cnc4c(N)ncnc43)[C@@H](F)C2O1 (single isomer, unassigned) [Compound 6C] | – | 2.31 | 1.1 | – |
| BP1(=O)OC[C@@]23COC([C@H](n4cnc5c(N)ncnc54)O2)[C@H]3OP(B)(=O)OC[C@H]2O[C@@H](n3cnc4c(N)ncnc43)[C@@H](F)C2O1 (single isomer, unassigned) [Compound 5A] | – | 6.2 | – | – |
| BP1(=O)OC[C@H]2O[C@@H](n3cnc4c(N)ncnc43)[C@@H](F)C2OP(B)(=O)OC[C@H]2O[C@@H](n3cc(F)c4c(=O)[nH]cnc43)[C@@H](O)C2O1 (single isomer, unassigned) [Compound 3B] | – | – | – | EC50 ([1]; Homo sapiens, THP1-Dual): 42.2 µM |
| BP1(=O)OC[C@@]23COC([C@H](n4cnc5c(N)ncnc54)O2)[C@H]3OP(B)(=O)OC[C@H]2O[C@@H](n3cnc4c(N)ncnc43)[C@@H](F)C2O1 (single isomer, unassigned) [Compound 5D] | 31.6 | 12.6 | – | – |
| BP1(=O)OC[C@H]2O[C@@H](n3cnc4c(N)ncnc43)C(O)[C@H]2OP(=O)(S)OC[C@H]2O[C@@H](n3cnc4c(N)ncnc43)C(F)[C@H]2O1 (single isomer, unassigned) [Compound 1D] | – | 7.48 | 24.4 | – |
